Test results taken from patent publication US20200032249A1, “LABELING, ISOLATION, & ANALYSIS OF RNA FROM RARE CELL POPULATIONS” (priority 2017, published 2020).

System: MDA231 cells
Assay: stress granule formation by G3BP immunostaining
Assay type: cell-based
Details: for treatment time after which cells started to form stress granules: human
Protocol: FIG. 2a-b. Flura-tagging has minimal cytotoxicity. FIG. 2a—Effect of Flura-tagging on stress granule formation. MDA231 cells were treated with 5-FC for the indicated times, and the formation of stress granules was detected by G3BP immunostaining. Control cells were either treated with water or sodium arsenite (Arsenite) for one hour. Arrows indicate stress granules (n=3). Scale bar=20 μM. FIG. 2b—Effect of Flura-tagging on transcription. RNA expression in control cells was compared to CD/UPRT-expressing cells treated with the indicated concentrations of 5-FC for 4 h or 12 h. Each dot represents a gene, with the outer/lighter gray dots indicating genes showing more than 2-fold differential expression, as determined by DESeq2 (n=2). The dotted line represents the four-fold cutoff mark.
5-FU is extensively used as a chemotherapeutic agent for the treatment of solid tumors, based on its ability to induce cancer cell death by inhibiting thymidylate synthase and by causing DNA and RNA damage (12-14). It was therefore crucial to test whether our 5-FU-tagging method, which is based on low concentrations of 5-FC and short incubation time periods, has significant cytotoxic effects under our experimental conditions. CD/UPRT-expressing cells were treated with 5-FC at concentrations of up to 250 μM for up to 12 h (“Flura-tagged” cells), and the effects of this treatment on RNA damage response and transcriptional regulation were investigated.
A key feature of the RNA damage response is the formation of stress granules (15). Ras GTPase-activating protein-binding protein 1 (G3BP), a key component of stress granules, forms distinct foci during stress granule formation (12). We determined the dose- and time-dependent effect of 5-FC treatment on stress granule formation by immunostaining of the cells with anti-G3BP antibody. […] The 5-FC-treated cells started to form stress granules only after 24 h of treatment with 1 mM 5-FC, a concentration four times higher than the maximal concentration of 5-FC used for Flura-tagging, or after 48 h of 5-FC treatment at lower concentrations (FIG. 2a).
Human embryonic kidney transformed with […] (293T) and human breast cancer MDA-MB-231 (MDA231) cells were cultured in DMEM High Glucose medium (Wheaton) supplemented with 10% Fetal Bovine Serum (Clontech, Catalog number 631106) supplemented with 2 mM L-Glutamine. All cell lines have been routinely tested for mycoplasma contamination. For the induction of CD or CD and UPRT, cells were treated with 1 μg/ml doxycycline for 24 h. For Fluorouracil tagging, cells were treated with 250 μM of 5-FC or 5-FU unless indicated. Where indicated, 125 μM thymine was added together with 5-FC. […]

Nc1nc(=O)[nH]cc1F [5-FC, 5-fluorocytosine]
stress granules after 12 h: did not contain stress granules
treatment time after which cells started to form stress granules: 48 h
treatment time after which cells started to form stress granules (1 mM): 24 h
